Our source for the viability, T/C and IC50 values is PubChem BioAssay AID2060486 (Molecular Pharmacology Branch, DTP, NCI, 2025).

The subject of the experiment is IGROV1 complex spheroids (HUVEC, MSC), viability % test/control. The experiment in a line: Anticancer human tumor IGROV1 cell line growth inhibition [GQUAD].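 For all read-outs here: spheroids exposed to compounds for 7 days before readout.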 The settings on record: for viability, T/C: stronger effect = lower value; for pIC50: curve of compound. The source says:
DNA G-quadruplex Stabilizer Agents in Combinations in Complex Spheroids
A high-throughput screen of multi-cell type tumor spheroids was designed to identify active combinations of DNA G-quadruplex stabilizer agents and targeted small molecules. Complex spheroids include a stromal component modeled by human endothelial cells (HUVEC) and fibroblasts modeled by human mesenchymal stem cells (MSCs). The concentration ranges selected for each drug and investigational agent were based upon clinically achievable concentrations if the clinical Cmax of the agent was known.
Compounds. The drugs and investigational agents: pidnarulex (CX-5461; NSC782164), APTO-253 (NSC789042), BRACO-19 (NSC847499), peposertib (NSC802822), ceralasertib (NSC780249), elimusertib (NSC800525), camonsertib (NSC841442), AZD-1390 (NSC803789), olaparib (NSC753686), talazoparib (NSC767125), ART-558 (NSC835418), sotorasib (NSC818433), MRTX-1133 (NSC836407), SN-38 (NSC673596), topotecan (NSC609699), etoposide (NSC141540), doxorubicin (NSC123127), gemcitabine (NSC613327), 5-fluorouracil (NSC19893), paclitaxel (NSC125973), vemurafenib (NSC761431), panobinostat (NSC761190), R-306465 (JNJ-16241199; NSC773264), adavosertib (NSC754352), TP-3654 (NSC805149), carboplatin (NSC241240), KSQ-4279 (NSC840948), and staurosporine (NSC755774) were obtained from the National Cancer Institute (NCI) Developmental Therapeutics Program Chemical Repository (34). The FDA-approved anticancer drug set is available from the NCI Developmental Therapeutics Program. […] The stock solutions were prepared in dimethyl sulfoxide (DMSO, Sigma-Aldrich, St. Louis, MO, cat. D2650) at 800-fold the tested concentration and stored at -70 degrees C prior to their use. All drugs and investigational agents were tested over a range starting from a high concentration at or near the clinical Cmax and decreasing in half-log increments. If the clinical Cmax for an agent had not been determined, the highest concentration tested was 10 microM.
2.3 Cell Culture. All cells were maintained in an incubator at 37 degrees C and 5% CO2 with 95% humidity. The PDC lines were cultured according to standard operating procedures established by the NCI PDMR. All PDCs were thawed and cultured in Matrigel-coated flasks prepared with a working solution of 1X Ham's F-12 nutrient mix, without supplementation (Invitrogen, cat. 11765054), 100 U/mL penicillin-streptomycin (Invitrogen, cat. 15140122), and 2.5% Matrigel (Corning Inc., cat. 354248) for the first three passages. The 857933-349-R-J2-PDC line was cultured in 6C/Colon 1B media, which includes advanced DMEM/F-12 (Thermo Fisher Scientific, cat. 12634028), 10 mM HEPES (Thermo Fisher Scientific, cat. 15630080), 1X GlutaMAX supplement (Thermo Fisher Scientific, cat. 35050061), 0.1 mg/mL primocin (InvivoGen, cat. ant-pm-2), 10% defined fetal bovine serum, heat inactivated (HyClone Laboratories Inc., cat. SH30070.03HI), 50% L-WRN conditioned media (ATCC, cat. CRL-3276), 1.25 mM N-Acetyl-L-cysteine (Sigma-Aldrich, cat. A9165), 10 mM nicotinamide (Sigma-Aldrich, cat. N0636), 1X B-27 supplement (Thermo Fisher Scientific, cat. 17504044), 1X N-2 supplement (Thermo Fisher Scientific, cat. 17502048), 10 microM Y-27632 dihydrochloride (Tocris Bioscience, cat. 1254), and 50 ng/mL human EGF recombinant protein (Thermo Fisher Scientific, cat. PHG0311). The 485176-168-R4-J1-PDC line was cultured in Panc media, which includes all 6C/Colon 1B media components plus 100 ng/mL human FGF-10 (Thermo Fisher Scientific, cat. 100-26), 500 nM SB-431542 (Selleckchem, cat. S1067), and gastrin (Tocris, cat. 3006).
[…]

pIC50: −log10 of the molar value. Values joined by “and” are separate entries in the source; they are usually repeats but may differ in a detail not shown here. Equal values may be shown once.

As to `CN(C)c1ccc(Nc2c3ccc(NC(=O)CCN4CCCC4)cc3nc3cc(NC(=O)CCN4CCCC4)ccc23)cc1`, the viability, T/C (compound 0.0316 µM) was 103% [middle of 12 runs]; the viability, T/C (compound 0.1 µM) was 101% [middle of 12 runs]; the viability, T/C (compound 0.316 µM) is 103% [middle of 12 runs]; the viability, T/C (compound 1 µM) was 100% [middle of 12 runs]; the viability, T/C (compound 3.16 µM) is 87.4% [middle of 12 runs]; the viability, T/C (compound 10 µM) is 52.3% [middle of 12 runs].
Regarding `COc1cc(C2c3cc4c(cc3C(OC3OC5COC(C)OC5C(O)C3O)C3COC(=O)C23)OCO4)cc(OC)c1O` (stereo unspecified), the pIC50 is 7.00 and 6.94 and 6.89. For the same compound, the viability, T/C (compound 0.0316 µM) is 87.7% and 74.7% and 87.1%. Under “compound 0.1 µM”, the viability, T/C was 50.5% and 54.1% and 56.5%. Also, the viability, T/C (compound 0.316 µM) was 23.5% and 21.2% and 26.5%. Moreover, the viability, T/C (compound 1 µM) was 14% and 12.6% and 12.7%. Besides, the viability, T/C (compound 3.16 µM) was 10.9% and 11.7% and 9.02%. Moreover, the viability, T/C (compound 10 µM) is 5.01% and 6.17% and 5.68%.
As to `COc1ccc([C@@H](O)c2cc(-c3ncnc4cc(N5CCOCC5)ccc34)c(F)cc2Cl)nn1`, the pIC50 was 5.96 and 5.84 and 5.87. The viability, T/C (compound 0.0316 µM) was 98.6% and 95.7% and 99.4%. Further, the viability, T/C (compound 0.1 µM) was 88.4% and 81.6% and 65.6%. In addition, the viability, T/C (compound 0.316 µM) is 91.1% and 92.8% and 94.7%. For the same compound, the viability, T/C (compound 1 µM) was 50.6% and 64.3% and 60.5%. In addition, the viability, T/C (compound 3.16 µM) was 20.1% and 18% and 17.6%. Further, where the note is “compound 10 µM”, the viability, T/C was 6.24% and 5.2% and 5.02%.
Turning to `COc1cccc2c1C(=O)c1c(O)c3c(c(O)c1C2=O)CC(O)(C(=O)CO)CC3OC1CC(N)C(O)C(C)O1` (stereo unspecified), the pIC50 was 7.33 and 7.34 and 7.42. Further, where the note is “compound 0.0316 µM”, the viability, T/C was 67.5% and 64.3% and 55.3%. Moreover, the viability, T/C (compound 0.1 µM) was 16.6% and 19.5% and 22.7%. For the setting “compound 0.316 µM”, the viability, T/C was 8.67% and 8.83% and 8.72%. The viability, T/C (compound 1 µM) was 3.86% and 4.47% and 4.45%. Further, the viability, T/C (compound 3.16 µM) was 0.12% and 0.15% and 0.11%. Besides, the viability, T/C (compound 10 µM) was 0.59% and 1.33% and 0.9%.
`Cc1[nH]c2ccccc2c1CCNCc1ccc(/C=C/C(=O)NO)cc1`: the pIC50 is 7.66 and 7.69 and 7.63. The viability, T/C (compound 0.000999 µM) is 108% and 102% and 86.4%. Besides, the viability, T/C (compound 0.00316 µM) is 89.8% and 85.8% and 90.5%. For the setting “compound 0.00999 µM”, the viability, T/C is 83.8% and 79.4% and 81.5%. Besides, the viability, T/C (compound 0.0316 µM) was 34.2% and 33.4% and 38.3%. In addition, the viability, T/C (compound 0.0999 µM) is 4.41% and 3.52% and 3.65%. Further, the viability, T/C (compound 0.316 µM) was 0.26% (2×) and 0.27%.
As to `Cc1cccc(N(C)C(=O)C2C(O)CCN2c2nc(C)cc(C(F)(F)F)c2C#N)c1` (stereo unspecified), the pIC50 is less than 5.00. In addition, the viability, T/C (compound 0.0316 µM) was 85.7% and 108% and 109%. In addition, under “compound 0.1 µM”, the viability, T/C is 86.3% and 92.3% and 87.3%. The viability, T/C (compound 0.316 µM) was 100% (2×) and 103%. The viability, T/C (compound 1 µM) is 87.2% and 85.6% and 91%. The viability, T/C (compound 3.16 µM) was 89.7% and 99.7% and 89%. The viability, T/C (compound 10 µM) is 88.3% and 93.8% and 78%.
Take `Cc1cnc(CNC(=O)c2c(=O)c3ccc(N4CCCN(C)CC4)nc3n3c2sc2ccccc23)cn1`: the viability, T/C runs as follows: (compound 0.0316 µM) 71.2% [middle of 12 runs]; (compound 0.1 µM) 40.9% [middle of 12 runs]; (compound 0.316 µM) 27% [middle of 12 runs]; (compound 1 µM) 16.7% [middle of 12 runs]; (compound 3.16 µM) 11.6% [middle of 12 runs]; (compound 10 µM) 11.3% [middle of 12 runs]. Under “compound alone, run of 03/18/2024”, the IC50 was 68.4 nM [middle of 11 runs].
Take `Cn1ncnc1[C@H]1c2n[nH]c(=O)c3cc(F)cc(c23)N[C@@H]1c1ccc(F)cc1`: the pIC50 was 6.89 and 6.96 and 7.11. Besides, the viability, T/C (compound 0.000999 µM) was 97.2% and 105% and 82.2%. In addition, under “compound 0.00316 µM”, the viability, T/C was 92.2% and 77% and 90.2%. For the same compound, the viability, T/C (compound 0.00999 µM) is 76.3% and 86.3% and 86.2%. Moreover, the viability, T/C (compound 0.0316 µM) is 70% and 67.1% and 66.2%. The viability, T/C (compound 0.0999 µM) is 53.7% and 55% and 46.8%. Further, where the note is “compound 0.316 µM”, the viability, T/C is 36.7% and 29.4% and 34.7%.
As for `Nc1ccn(C2OC(CO)C(O)C2(F)F)c(=O)n1` (stereo unspecified), the pIC50 was more than 7.50. The viability, T/C (compound 0.0316 µM) is 12.1% and 11.8% and 8.43%. Besides, the viability, T/C (compound 0.1 µM) is 5.96% and 5.24% and 5.38%. For the setting “compound 0.316 µM”, the viability, T/C was 5.74% and 5.8% and 4.72%. Moreover, under “compound 1 µM”, the viability, T/C is 6.33% and 6.36% and 4.79%. In addition, under “compound 3.16 µM”, the viability, T/C was 6.11% and 5.6% and 4.26%. Further, the viability, T/C (compound 10 µM) is 5.62% and 5.26% and 4.2%.
On to `O=C(c1cc(Cc2n[nH]c(=O)c3ccccc23)ccc1F)N1CCN(C(=O)C2CC2)CC1`, for which the pIC50 is 5.32 and 5.45 and 5.61. For the same compound, the viability, T/C (compound 0.0316 µM) is 87.6% and 92% and 100%. Further, for the setting “compound 0.1 µM”, the viability, T/C was 91.8% and 91.9% and 84.2%. Besides, the viability, T/C (compound 0.316 µM) is 93.4% and 85.7% and 102%. The viability, T/C (compound 1 µM) is 77.6% and 81.8% and 83.7%. Also, the viability, T/C (compound 3.16 µM) was 63.9% and 52.6% and 40%. For the same compound, under “compound 10 µM”, the viability, T/C was 26.5% and 25.6% and 20.9%.
Regarding `O=c1[nH]cc(F)c(=O)[nH]1`, the pIC50 was 5.25 and 5.19 and 5.24. Moreover, under “compound 0.0316 µM”, the viability, T/C was 109% and 96.5% and 111%. The viability, T/C (compound 0.1 µM) is 86.7% and 99.3% and 94.8%. For the same compound, the viability, T/C (compound 0.316 µM) was 99.8% and 104% and 106%. In addition, for the setting “compound 1 µM”, the viability, T/C was 95.4% and 96.4% and 96.5%. Further, where the note is “compound 3.16 µM”, the viability, T/C was 69.2% and 93.7% and 84.7%. In addition, the viability, T/C (compound 10 µM) was 30.4% and 23.8% and 19.9%.
